Tested on: respiratory epithelial cells

IL-13: human IL-13 (Peprotech, Inc.) added to the medium at 50 ng/mL to stimulate respiratory epithelial cells
HLA-F (37421_f_at) expression, fold change upon IL-13 stimulation (lot 1, Day 7, IMM method): 2.1 fold | HLA-F (49203_f_at) expression fold change (lot 1, Day 7, IMM method): 2.1 fold | HS3ST1 (41556_s_at) expression fold change upon IL-13 stimulation (lot 1, Day 7, IMM method): 3.7 fold | HUMRTVLH3 (34702_f_at) expression, fold change upon IL-13 stimulation (lot 1, Day 7, IMM method): 7 fold | IFI27 (425_at) expression, fold change upon IL-13 stimulation (lot 1, Day 7, IMM method): 2.8 fold | IFI35 (464_s_at) expression, fold change upon IL-13 stimulation (lot 1, Day 7, IMM method): 4.6 fold | IFI44 (37641_at) expression, fold change upon IL-13 stimulation (lot 1, Day 7, IMM method): 2.3 fold | IFIT1 (915_at) expression, fold change upon IL-13 stimulation (lot 1, Day 7, IMM method): 2.1 fold | IFIT4 (38584_at) expression, fold change upon IL-13 stimulation (lot 1, Day 7, IMM method): 3.4 fold | IFITM1 (675_at) expression, fold change upon IL-13 stimulation (lot 1, Day 7, IMM method): 8.1 fold | IL13RA2 (1016_s_at) expression fold change upon IL-13 stimulation (lot 1, Day 7, IMM method): 5.3 fold | IL19 (47855_at) expression fold change (lot 1, Day 7, IMM method): 2.6 fold | ISG15 (1107_s_at) expression, fold change upon IL-13 stimulation (lot 1, Day 7, IMM method): 3.8 fold | ISG15 (38432_at) expression, fold change upon IL-13 stimulation (lot 1, Day 7, IMM method): 5 fold | ISG20 (33304_at) expression, fold change upon IL-13 stimulation (lot 1, Day 7, IMM method): 4.2 fold | KIAA0469 (37230_at) expression, fold change upon IL-13 stimulation (lot 1, Day 7, IMM method): 2.4 fold | KIAA0537 (33787_at) expression, fold change upon IL-13 stimulation (lot 1, Day 7, IMM method): 3.3 fold | KIAA1199 (36070_at) expression, fold change upon IL-13 stimulation (lot 1, Day 7, IMM method): 2.3 fold | KIAA1268 (57050_at) expression fold change (lot 1, Day 7, IMM method): 2.4 fold | KIAAI268 (59516_at) expression fold change (lot 1, Day 7, IMM method): 4 fold | KRT16 (601_s_at) expression fold change (lot 1, Day 7, IMM method): 3.5 fold | LOC57118 (51085_at) expression fold change (lot 1, Day 7, IMM method): 5 fold | MAT2A (32571_at) expression fold change upon IL-13 stimulation (lot 1, Day 7, IMM method): 2.4 fold | MDA5 (51920_at) expression fold change (lot 1, Day 7, IMM method): 2.8 fold | MFHAS1 (50388_at) expression fold change (lot 1, Day 7, IMM method): 2.6 fold | MMP7 (668_s_at) expression, fold change upon IL-13 stimulation (lot 1, Day 7, IMM method): 2.8 fold | MX2 (879_at) expression fold change (lot 1, Day 7, IMM method): 2.4 fold | MXI (37014_at) expression fold change (lot 1, Day 7, IMM method): 11.2 fold | NK4 (39119_s_at) expression fold change upon IL-13 stimulation (lot 1, Day 7, IMM method): 2.5 fold | NOS2A (1948_f_at) expression fold change upon IL-13 stimulation (lot 1, Day 7, IMM method): 2.8 fold | NOS2A (48918_at) expression fold change (lot 1, Day 7, IMM method): 2.5 fold | NTRK1 (36805_s_at) expression, fold change upon IL-13 stimulation (lot 1, Day 7, IMM method): 6.5 fold | OAF (39695_at) expression, fold change upon IL-13 stimulation (lot 1, Day 7, IMM method): 5.1 fold | OAS1 (38388_at) expression fold change upon IL-13 stimulation (lot 1, Day 7, IMM method): 3.3 fold | OAS1 (38389_at) expression fold change upon IL-13 stimulation (lot 1, Day 7, IMM method): 3.3 fold | OSF-2 (1451_s_at) expression fold change upon IL-13 stimulation (lot 1, Day 7, IMM method): 30.6 fold | PHKB (46459_at) expression fold change (lot 1, Day 7, IMM method): −2.7 fold | PITPNB (35017_f_at) expression, fold change upon IL-13 stimulation (lot 1, Day 7, IMM method): 2.1 fold | PLS1 (39951_at) expression fold change (lot 1, Day 7, IMM method): 7.9 fold | PSMB9 (38287_at) expression fold change upon IL-13 stimulation (lot 1, Day 7, IMM method): 3.1 fold | RASGRP1 (33291_at) expression fold change (lot 1, Day 7, IMM method): 3.3 fold | RIG-1 (59215_at) expression fold change (lot 1, Day 7, IMM method): 3.8 fold | SECTM1 (41045_at) expression, fold change upon IL-13 stimulation (lot 1, Day 7, IMM method): 14 fold | SERPINB2 (37185_at) expression fold change (lot 1, Day 7, IMM method): 3 fold | SERPINB4 (1549_s_at) expression fold change (lot 1, Day 7, IMM method): 23.9 fold | SIAT1 (41352_at) expression fold change upon IL-13 stimulation (lot 1, Day 7, IMM method): 21.6 fold | SLC26A4, pendrin (36376_at) expression fold change (lot 1, Day 7, IMM method): 28.5 fold | SSI-1 (41592_at) expression, fold change upon IL-13 stimulation (lot 1, Day 7, IMM method): 8.3 fold | STAT1 (33339_g_at) expression fold change (lot 1, Day 7, IMM method): 2.1 fold | TSPAN-3 (38612_at) expression, fold change upon IL-13 stimulation (lot 1, Day 7, IMM method): 3.2 fold | UFD1L (811_at) expression, fold change upon IL-13 stimulation (lot 1, Day 7, IMM method): 3.8 fold | WARS (38121_at) expression fold change upon IL-13 stimulation (lot 1, Day 7, IMM method): 6 fold | cig5 (38549_at) expression, fold change upon IL-13 stimulation (lot 1, Day 7, IMM method): 2.2 fold | diubiquitin (39959_at) expression, fold change upon IL-13 stimulation (lot 1, Day 7, IMM method): 9.7 fold | AA059458 (65626_at) expression change (lot 1 Day 3 AI): −2.3 | AA151265 (60939_i_at) expression change (lot 1 Day 3 AI): −2.5 | AA160156 (47578_at) expression change (lot 1 Day 3 AI): −2.4 | AA422178 (53747_at) expression change (lot 1 Day 3 AI): −5.3 | AA456099 (59567_at) expression change (lot 1 Day 3 AI): −2 | AA772055 46104_at expression change (lot 1 Day 3 AI): −5.4 | AF052107 38262_at expression change (lot 1 Day 3 AI): −2.5 | AI050855 (64285_at) expression change (lot 1 Day 3 AI): −3.6 | AI264299 (84903_f_at) expression change (lot 1 Day 3 AI): −3.1 | AI432375 (49819_at) expression change (lot 1 Day 3 AI): −4.3 | AI468340 (72604_at) expression change (lot 1 Day 3 AI): −2 | AI760772 (58528_s_at) expression change (lot 1 Day 3 AI): −2.3 | AI829641 (84270_at) expression change (lot 1 Day 3 AI): −5.1 | AI917602 (49985_at) expression change (lot 1 Day 3 AI): −2.3 | AI923984 33546_at expression change (lot 1 Day 3 AI): −3.2 | AL040936 (45684_at) expression change (lot 1 Day 3 AI): −2.7 | AQP5 32909_at expression change (lot 1 Day 3 AI): −6.3 | ARHGEF4 36524_at expression change (lot 1 Day 3 AI): −3.5 | ARHV (82231_at) expression change (lot 1 Day 3 AI): −2 | AW025596 52637_g_at expression change (lot 1 Day 3 AI): −4.8 | BARX2 35425_at expression change (lot 1 Day 3 AI): −3.1 | BPGM (51261_at) expression change (lot 1 Day 3 AI): −4 | CRABP-II 1057_at expression change (lot 1 Day 3 AI): −4.6 | DKFZp434K1210 44682_at expression change (lot 1 Day 3 AI): −4.4 | DREV1 (63813_at) expression change (lot 1 Day 3 AI): −2 | DSC3a, b 47119_at expression change (lot 1 Day 3 AI): −2.4 | EIF4EBP1 (54152_at) expression change (lot 1 Day 3 AI): −2.2 | FLJ10298 (62490_f_at) expression change (lot 1 Day 3 AI): −3.7 | FLJ20048 (49196_at) expression change (lot 1 Day 3 AI): −2.4 | FLJ20373 54030_at expression change (lot 1 Day 3 AI): −2.1 | GABRP 40339_at expression change (lot 1 Day 3 AI): −2.2 | GJA1 32531_at expression change (lot 1 Day 3 AI): −4.4 | GSTA3 58023 at expression change (lot 1 Day 3 AI): −4.6 | HEY1 44783_s_at expression change (lot 1 Day 3 AI): −6.2 | HIN-1 (46200_at) expression change (lot 1 Day 3 AI): −5.4 | HSPC195 44705_at expression change (lot 1 Day 3 AI): −2.5 | IVL 36355_at expression change (lot 1 Day 3 AI): −6.8 | K1IAA1102 (64345_s_at) expression change (lot 1 Day 3 AI): −2.7 | KLF7 34216_at expression change (lot 1 Day 3 AI): −2.5 | KLF7 (42769_at) expression change (lot 1 Day 3 AI): −3.2 | KRT6B (62998_at) expression change (lot 1 Day 3 AI): −3.4 | KRT15 37582_at expression change (lot 1 Day 3 AI): −5.2 | LOC51297 (49616_at) expression change (lot 1 Day 3 AI): −9.1 | LOC51297 (55440_at) expression change (lot 1 Day 3 AI): −57.3 | LOC51297 (55442_g_at) expression change (lot 1 Day 3 AI): −14 | LOC51316 (63342_at) expression change (lot 1 Day 3 AI): −2 | LOC129642 (58288_at) expression change (lot 1 Day 3 AI): −2.8 | LOC131177 (43849_s_at) expression change (lot 1 Day 3 AI): −5.2 | LOC131177 (45394_s_at) expression change (lot 1 Day 3 AI): −4.4 | MGC13102 (54791_at) expression change (lot 1 Day 3 AI): −6.5 | MGC14128 55924_at expression change (lot 1 Day 3 AI): −2.6 | MGC14128 (51669_r_at) expression change (lot 1 Day 3 AI): −2.8

— patent US20050208496A1, “Methods of testing for bronchial asthma or chronic obstructive pulmonary disease” (Genox Research, Inc., priority 2002, published 2005)
